Source: patent US20220409733A1, “COMPOSITIONS AND METHODS FOR TREATING CANCER” (priority 2019, published 2022)
Read-outs that look alike come from different tables or passages of the source.

Columns and labels:
A2780-CP cells = experiment: CCK-8 assay of cDDP cytotoxicity in Pt resistant A2780-CP cells; format: cell-based; details: 1 h cDDP exposure
Description: (§1) FIG. 1B: CCK-8 assay of A2780, A2780-CP and A2780-CP cells pre-incubated for 24 h with APP antisense oligonucleotides (A2780ONS) during a 1 h exposure to increasing concentrations of cDDP.

A2780 cells = experiment: CCK-8 assay of cDDP cytotoxicity in parental A2780 cells; format: cell-based; details: parental A2780 cell line, 1 h cDDP exposure
Description: as §1

APP = APP (Homo sapiens, UniProt P05067); details: in vivo and in vitro; cited from earlier work
APP, sequence (P05067 18-770): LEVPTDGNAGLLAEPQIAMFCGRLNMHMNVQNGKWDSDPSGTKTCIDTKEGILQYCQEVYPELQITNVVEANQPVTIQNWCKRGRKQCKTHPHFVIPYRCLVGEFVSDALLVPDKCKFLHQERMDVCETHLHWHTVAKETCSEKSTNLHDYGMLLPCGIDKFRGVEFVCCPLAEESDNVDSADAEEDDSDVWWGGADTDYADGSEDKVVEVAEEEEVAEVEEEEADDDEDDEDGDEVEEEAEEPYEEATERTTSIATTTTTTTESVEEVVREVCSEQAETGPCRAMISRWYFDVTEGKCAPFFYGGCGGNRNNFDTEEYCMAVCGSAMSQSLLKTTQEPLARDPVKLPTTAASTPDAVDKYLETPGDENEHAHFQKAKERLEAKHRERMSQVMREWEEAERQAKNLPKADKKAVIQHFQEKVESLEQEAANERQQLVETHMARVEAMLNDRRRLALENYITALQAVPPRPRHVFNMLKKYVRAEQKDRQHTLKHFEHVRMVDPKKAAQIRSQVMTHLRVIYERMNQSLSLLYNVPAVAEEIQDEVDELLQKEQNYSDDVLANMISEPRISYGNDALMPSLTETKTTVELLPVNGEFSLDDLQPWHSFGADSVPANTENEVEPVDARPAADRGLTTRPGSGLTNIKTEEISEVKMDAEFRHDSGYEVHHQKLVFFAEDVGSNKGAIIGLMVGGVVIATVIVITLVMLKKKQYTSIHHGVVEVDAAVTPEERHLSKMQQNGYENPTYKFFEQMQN

Compound	IC50 (A2780-CP cells; A2780-CP cells pre-treated overnight with 25 μM APP ONS, read-out: IC50 of cDDP following APP downregulation) [µM]	IC50 (A2780-CP cells; A2780-CP cells, no APP downregulation, read-out: IC50 of cDDP) [µM]	IC50 (A2780 cells) [µM]	Binding to APP (APP)
[NH2][Pt]([NH2])([Cl])[Cl] [cDDP, Cisplatin]	12.1 ± 0.3	63.2 ± 1.9	10.2 ± 0.32	
-cdkc pagtyvsehc tntslrvcss cpvgtftr- (SEQ ID NO:1) [DR6 peptide]				high affinity
